Laboratory results as given in patent US20250136596A1, “MEMBRANE-ASSOCIATED TYROSINE- AND THREONINE-SPECIFIC CDC2-INHIBITORY KINASE (PKMYT1) INHIBITORS AND USES THEREOF” (Insilico Medicine IP Limited, priority 2022, published 2025).

target: PKMYT1 (Homo sapiens (Human), UniProt Q99640); test: PKMYT1 HTRF Assay; format: binding; conditions: Tracer 178, GST-Tb; compound 10 μM to 0.5 nM; read-out: MYT1 HTRF IC50
Outline: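 Compound (final 10 μM to 0.5 nM) preincubated with PKMYT1 enzyme 15 min at 25° C, then Tracer 178 added for 60 min at 25° C. GST-Tb added, 15 min at 25° C, before HTRF readout.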

Chain of PKMYT1 (Q99640 whole entry): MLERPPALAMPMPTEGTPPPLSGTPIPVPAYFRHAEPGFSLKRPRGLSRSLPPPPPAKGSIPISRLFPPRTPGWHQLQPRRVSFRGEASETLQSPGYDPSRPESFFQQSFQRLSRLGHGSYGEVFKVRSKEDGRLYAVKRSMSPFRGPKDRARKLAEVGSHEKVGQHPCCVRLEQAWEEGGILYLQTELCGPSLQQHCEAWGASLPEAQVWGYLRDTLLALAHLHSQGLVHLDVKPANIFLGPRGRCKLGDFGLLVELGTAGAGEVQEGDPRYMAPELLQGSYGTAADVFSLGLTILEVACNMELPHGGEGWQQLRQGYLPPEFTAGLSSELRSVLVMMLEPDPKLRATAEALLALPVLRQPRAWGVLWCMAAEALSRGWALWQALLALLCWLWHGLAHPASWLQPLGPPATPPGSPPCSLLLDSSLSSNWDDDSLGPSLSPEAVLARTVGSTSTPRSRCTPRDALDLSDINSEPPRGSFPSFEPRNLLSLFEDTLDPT

SMILES	IC50 [nM]
Cc1ccc(O)c(C)c1-c1cnc2[nH]c(-c3cnc(N4CC5CC4CO5)nc3)cc2c1C#N [Example 42, (R)-2-(2-((1S,4S)-2-oxa-5-azabicyclo[2.2.1]heptan-5-yl)pyrimidin-5-yl)-5-(3-hydroxy-2,6-dimethylphenyl)-1H-pyrrolo[2,3-b]pyridine-4-carbonitrile]	< 10
Cc1ccc(O)c(C)c1-c1cnc2[nH]c(-c3cnoc3)cc2c1C#N [Example 119, (S)-5-(3-hydroxy-2,6-dimethylphenyl)-2-(isoxazol-4-yl)-1H-pyrrolo[2,3-b]pyridine-4-carbonitrile]	< 10
Cc1ccc(O)c(C)c1-c1cnc2[nH]c(-c3cnc(N(C)C4COC4)nc3)cc2c1C#N [Example 96, (R)-5-(3-hydroxy-2,6-dimethylphenyl)-2-(2-(methyl(oxetan-3-yl)amino)pyrimidin-5-yl)-1H-pyrrolo[2,3-b]pyridine-4-carbonitrile]	10 to 50
Cc1ccc(O)c(C)c1-c1cnc2[nH]c(-c3cnc(N4CCC(C(N)=O)C4)nc3)c(Cl)c2c1C#N [Example 73, (S)-1-(5-((R)-3-chloro-4-cyano-5-(3-hydroxy-2,6-dimethylphenyl)-1H-pyrrolo[2,3-b]pyridin-2-yl)pyrimidin-2-yl)pyrrolidine-3-carboxamide]	< 10
Cc1ccc(O)c(C)c1-c1cnc2[nH]c(-c3cnn(C)c3)cc2c1C#N [Example 118, (S)-5-(3-hydroxy-2,6-dimethylphenyl)-2-(1-methyl-1H-pyrazol-4-yl)-1H-pyrrolo[2,3-b]pyridine-4-carbonitrile]	< 10
Cc1ccc(O)c(C)c1-c1cnc2[nH]c(-c3cnc(CN4CC(F)(F)C4)nc3)cc2c1C#N [Example 94, (R)-2-(2-((3,3-difluoroazetidin-1-yl)methyl)pyrimidin-5-yl)-5-(3-hydroxy-2,6-dimethylphenyl)-1H-pyrrolo[2,3-b]pyridine-4-carbonitrile]	< 10
Cc1ccc(O)c(C)c1-c1cnc2[nH]c(-c3cnn(CC(C)(C)O)c3)cc2c1C#N [Example 117, (S)-5-(3-hydroxy-2,6-dimethylphenyl)-2-(1-(2-hydroxy-2-methylpropyl)-1H-pyrazol-4-yl)-1H-pyrrolo[2,3-b]pyridine-4-carbonitrile]	< 10
COCCn1ncc(-c2[nH]c3ncc(-c4c(C)ccc(O)c4C)c(C#N)c3c2Cl)cc1=O [Example 67, (R)-3-chloro-5-(3-hydroxy-2,6-dimethylphenyl)-2-(1-(2-methoxyethyl)-6-oxo-1,6-dihydropyridazin-4-yl)-1H-pyrrolo[2,3-b]pyridine-4-carbonitrile]	< 10
Cc1ccc(O)c(C)c1-c1cnc2[nH]c(-c3ccc(N4CCN(C)CC4)nc3C)nc2c1 [Example 1, 2,4-dimethyl-3-(2-(2-methyl-6-(4-methylpiperazin-1-yl)pyridin-3-yl)-3H-imidazo[4,5-b]pyridin-6-yl)phenol]	50 to 500
Cc1ccc(O)c(C)c1-c1cnc2[nH]c(-c3cnc(C(F)(F)F)nc3)cc2c1C#N [Example 55, 5-(3-hydroxy-2,6-dimethylphenyl)-2-(2-(trifluoromethyl)pyrimidin-5-yl)-1H-pyrrolo[2,3-b]pyridine-4-carbonitrile]	< 10
